Source: article PMC4309560, “Creating Novel Activated Factor XI Inhibitors through Fragment Based Lead Generation and Structure Aided Drug Design” (PLoS ONE, 2015)
Like-named read-outs stand apart in the source and are kept apart here.

Key:
[1] = molecular target: T1, Human FXIa (Homo sapiens, UniProt P03951); assay: FXIa enzymatic chromogenic assay; format: biochemical
T1 construct: purchased HTI, Essex Junction, USA
Procedure: (§1) Enzymatic assay. […] Selected compounds were also screened against other serine proteases to evaluate their selectivity profiles.
(§2) Once the compounds were synthesized and characterized, enzymatic assays were performed to evaluate the inhibitory activity of the resulting compounds against FXIa and other serine proteases. […] IC50 values for the compounds were determined using equation: Q= V/(1+([I]/IC50)^n) Q denotes the assay readout, V denotes the uninhibited velocity of the enzyme, [I] denotes the inhibitor concentration, n denotes the slope and IC50 is the inhibitor concentration at V/2.
(§3) [S] denotes the substrate concentration.

[2] = molecular target: Human FIXa (Homo sapiens, UniProt P00740); assay: biochemical; conditions: read-out: FIXa % inhibition at 99 μM
Procedure: as §1, §2

[3] = molecular target: Human FXa (Homo sapiens, UniProt P00742); assay: biochemical; conditions: read-out: FXa % inhibition at 99 μM
Procedure: as §1, §2

[4] = molecular target: T2, Human recombinant thrombin (Homo sapiens, UniProt P00734); assay: Thrombin (FIIa) chromogenic assay; format: biochemical; conditions: for inhibition at 99 µM: read-out: FIIa % inhibition at 99 μM
T2 construct: Human recombinant thrombin was prepared in house; made in house
Procedure: as §1, §2, §3
Thrombin. Human recombinant thrombin was prepared in house.

[5] = molecular target: Recombinant human trypsin (Homo sapiens, UniProt P07477); assay: biochemical; conditions: read-out: Trypsin % inhibition at 99 μM
Procedure: as §1, §2
Trypsin. Recombinant human trypsin was from Polymun, Vienna, Austria.

[6] = molecular target: T3, Human PKK (Homo sapiens, UniProt P03952); assay: PKK (plasma kallikrein) chromogenic assay; format: biochemical; conditions: for Ki: converted from IC50
T3 construct: trypsin, plasma kallikrein (PKK), FIXa; purchased Calbiochem, Darmstadt, Germany
Procedure: as §1, §2, §3
PKK. Human PKK was from Calbiochem, Darmstadt, Germany.

[7] = molecular target: Human tPA (Homo sapiens, UniProt P00750); assay: biochemical; conditions: read-out: tPA % inhibition at 99 μM
Procedure: as §1, §2
tPa. Human tPA was from Biopool, Umeå, Sweden.

[8] = molecular target: T4, Human plasmin (Homo sapiens, UniProt P00747); assay: Plasmin chromogenic assay; format: biochemical; conditions: for inhibition at 99 µM: read-out: Plasmin % inhibition at 99 μM
T4 construct: Human plasmin was from Enzyme Research Laboratories, Swansea, UK; purchased Enzyme Research Laboratories, Swansea, UK
Procedure: as §1, §2, §3
Plasmin. Human plasmin was from Enzyme Research Laboratories, Swansea, UK.

[9] = Chromatographic determination of lipophilicity; format: physicochemical; conditions: reversed-phase UPLC, Waters BEH C18 stationary phase, pH 7.4; measured by liquid chromatography, pH7.4
Text: The chromatographic data was obtained utilizing a Waters Aquity UPLC chromatographic system running a gradient from 5–95% acetonitrile at pH7.4. The stationary phase was a Waters BEH C18 2.1x50 mm. Standardized retention data were obtained by normalization against a set of compounds with precisely determined (octanol/water) logD-values. Lipophilicity values for samples were derived from a corresponding calibration curve.

[10] = system: Caco2 cells; assay: Caco2 permeability; format: in vitro ADME
Procedure: A monolayer of Caco2 cells, cultured on semi-permeable polycarbonate surfaces, was used to study the permeability in the apical to basolateral direction. The process was atomized by a robotic Tecan EVO platform (Männerdorf, Switzerland) and 24-transwell plates from Costar (Cambridge, MA, USA). HBSS buffer pH 7.4 was dispensed to the basal side of the monolayer. […] Samples for quantitative analysis by LC/MS/MS were withdrawn before the addition of the test substrate and at 45 and 120 min post addition of the test substrate. During incubation the transwell plates were placed in a shaking incubator at 37°C between sampling. The peak areas were exported to Excel where Papp-values and recoveries were calculated. Twenty-two reference compounds with known human oral bioavailability were used to establish a correlation curve with Papp versus the fraction of the oral dose absorbed (fa).

[11] = Caco2 efflux; format: in vitro ADME; conditions: human, Caco-2; Caco2, Papp B to A / Papp A to B, pH 7.4 at side A
Text: Efflux was studied in the same Caco2 cells with the modification that HBSS buffer pH 7.4 was used on both sides of the monolayer. The permeability was studied in the apical to basolateral direction (Papp AB) as well as in the basolateral to apical direction and (Papp BA). Efflux ratios were derived from the following equation: Papp BA/Papp AB.

[12] = system: rat hepatocytes; assay: Rat hepatocyte metabolic stability assay; format: in vitro ADME
Procedure: Rat hepatocyte metabolic stability was determined in accordance with the method described by Jacobson et al.. Cryo preserved hepatocytes at a concentration of 10^6 viable cells/mL were used. After thawing, hepatocytes were incubated for 10 min to warm to 37°C and test compounds, dissolved in acetonitrile, were added to give a final concentration of 1 μM. At 0.5, 5, 15, 30, 45, 60, 80, 100 and 120 min, the incubation system was mixed and 20 μL aliquots were transferred at each time point to wells in a separate plate filled with 80 μL acetonitrile to stop the reaction. The quenching plate was then vortexed followed by centrifugation, and supernatants were analyzed by LC/MS/MS. Peak areas were determined from extracted ion chromatograms, and the in vitro intrinsic clearance (in vitro CLint, in μL/min/10^6 cells) of parent compound was calculated from the slope in the regression analysis of the natural logarithm of parent concentration vs. time curve.

T4 sequence (P00747 581-810 limits assumed): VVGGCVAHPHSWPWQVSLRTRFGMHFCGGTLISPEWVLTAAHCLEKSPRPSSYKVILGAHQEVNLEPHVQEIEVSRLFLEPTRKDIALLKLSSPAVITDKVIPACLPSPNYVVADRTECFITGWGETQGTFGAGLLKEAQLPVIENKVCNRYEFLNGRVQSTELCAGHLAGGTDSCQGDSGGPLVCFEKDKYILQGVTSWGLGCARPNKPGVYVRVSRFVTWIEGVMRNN
T4 sequence (P00747 97-580 partner limits assumed): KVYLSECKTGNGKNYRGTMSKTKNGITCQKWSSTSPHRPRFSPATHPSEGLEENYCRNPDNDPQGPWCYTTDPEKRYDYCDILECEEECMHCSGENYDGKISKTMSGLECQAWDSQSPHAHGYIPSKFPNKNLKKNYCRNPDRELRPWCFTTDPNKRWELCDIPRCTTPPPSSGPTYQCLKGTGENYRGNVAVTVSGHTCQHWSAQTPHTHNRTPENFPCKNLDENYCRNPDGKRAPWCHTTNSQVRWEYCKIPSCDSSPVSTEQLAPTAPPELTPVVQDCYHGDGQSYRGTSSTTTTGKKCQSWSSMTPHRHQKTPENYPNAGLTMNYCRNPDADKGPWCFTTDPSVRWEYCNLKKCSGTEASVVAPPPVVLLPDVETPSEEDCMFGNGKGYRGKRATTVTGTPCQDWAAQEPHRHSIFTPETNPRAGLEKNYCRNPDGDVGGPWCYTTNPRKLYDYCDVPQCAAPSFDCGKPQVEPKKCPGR
Sequence of Human tPA (P00750 36-562): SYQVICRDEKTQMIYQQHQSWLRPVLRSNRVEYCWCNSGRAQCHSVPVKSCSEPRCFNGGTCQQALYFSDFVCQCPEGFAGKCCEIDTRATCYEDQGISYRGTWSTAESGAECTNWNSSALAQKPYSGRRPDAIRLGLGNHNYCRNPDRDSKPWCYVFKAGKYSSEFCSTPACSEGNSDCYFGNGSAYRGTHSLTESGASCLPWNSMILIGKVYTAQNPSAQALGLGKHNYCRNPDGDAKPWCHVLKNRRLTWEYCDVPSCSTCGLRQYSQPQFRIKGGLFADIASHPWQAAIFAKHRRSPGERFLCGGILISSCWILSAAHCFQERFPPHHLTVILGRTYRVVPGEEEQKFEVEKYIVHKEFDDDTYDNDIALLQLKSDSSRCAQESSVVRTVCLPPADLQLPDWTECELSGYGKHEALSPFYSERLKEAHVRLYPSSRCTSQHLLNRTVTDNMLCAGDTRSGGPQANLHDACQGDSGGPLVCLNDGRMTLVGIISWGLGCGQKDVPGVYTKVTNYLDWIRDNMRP
T3 sequence (P03952 391-638 limits assumed): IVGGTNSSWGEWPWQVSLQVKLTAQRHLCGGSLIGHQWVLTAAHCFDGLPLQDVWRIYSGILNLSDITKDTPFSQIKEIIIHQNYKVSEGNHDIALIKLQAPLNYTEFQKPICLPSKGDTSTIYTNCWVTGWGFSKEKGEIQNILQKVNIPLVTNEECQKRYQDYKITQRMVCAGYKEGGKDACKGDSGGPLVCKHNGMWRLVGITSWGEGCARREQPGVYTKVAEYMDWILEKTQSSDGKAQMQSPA
T3 sequence (P03952 20-390 partner limits assumed): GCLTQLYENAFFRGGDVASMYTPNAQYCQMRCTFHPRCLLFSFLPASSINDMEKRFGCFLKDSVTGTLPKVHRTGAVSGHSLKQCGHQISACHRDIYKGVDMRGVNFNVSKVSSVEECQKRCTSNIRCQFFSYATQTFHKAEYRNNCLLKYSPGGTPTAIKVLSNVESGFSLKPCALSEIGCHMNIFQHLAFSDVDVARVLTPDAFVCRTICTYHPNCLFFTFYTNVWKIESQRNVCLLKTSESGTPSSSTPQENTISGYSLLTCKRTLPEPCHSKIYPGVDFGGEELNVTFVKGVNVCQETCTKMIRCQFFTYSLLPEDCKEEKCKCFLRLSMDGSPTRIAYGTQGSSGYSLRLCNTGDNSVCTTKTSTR
T1 sequence (P03951 388-625): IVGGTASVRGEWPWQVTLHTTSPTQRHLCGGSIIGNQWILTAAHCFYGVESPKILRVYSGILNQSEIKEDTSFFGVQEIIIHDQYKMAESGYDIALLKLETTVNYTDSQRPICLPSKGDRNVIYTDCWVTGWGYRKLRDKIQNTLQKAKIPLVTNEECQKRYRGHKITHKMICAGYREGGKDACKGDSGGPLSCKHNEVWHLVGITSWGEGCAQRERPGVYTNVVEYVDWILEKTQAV
T1 sequence (P03951 19-387): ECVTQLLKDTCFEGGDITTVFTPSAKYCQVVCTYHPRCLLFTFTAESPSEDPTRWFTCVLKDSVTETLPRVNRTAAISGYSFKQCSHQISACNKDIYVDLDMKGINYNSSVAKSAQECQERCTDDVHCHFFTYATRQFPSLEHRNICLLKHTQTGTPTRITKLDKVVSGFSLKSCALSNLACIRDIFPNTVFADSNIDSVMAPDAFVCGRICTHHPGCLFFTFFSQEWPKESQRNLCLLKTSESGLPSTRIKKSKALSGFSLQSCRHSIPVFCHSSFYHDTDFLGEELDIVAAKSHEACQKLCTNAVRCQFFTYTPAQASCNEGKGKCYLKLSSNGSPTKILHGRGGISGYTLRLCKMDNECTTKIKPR
Sequence of Human FIXa (P00740 227-461 limits assumed): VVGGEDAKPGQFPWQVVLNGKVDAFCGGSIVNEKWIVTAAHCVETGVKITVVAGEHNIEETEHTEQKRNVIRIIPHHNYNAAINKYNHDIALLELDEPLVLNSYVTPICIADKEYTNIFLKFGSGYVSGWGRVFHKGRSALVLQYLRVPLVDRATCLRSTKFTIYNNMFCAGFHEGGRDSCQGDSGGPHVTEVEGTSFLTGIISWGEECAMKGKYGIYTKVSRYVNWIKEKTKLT
Sequence of Human FIXa (P00740 47-191 partner limits assumed): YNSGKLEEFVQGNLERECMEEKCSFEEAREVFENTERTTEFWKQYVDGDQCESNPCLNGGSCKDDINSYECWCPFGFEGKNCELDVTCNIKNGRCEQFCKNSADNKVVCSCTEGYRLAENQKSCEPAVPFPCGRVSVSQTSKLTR
Sequence of Human FXa (P00742 235-488 limits assumed): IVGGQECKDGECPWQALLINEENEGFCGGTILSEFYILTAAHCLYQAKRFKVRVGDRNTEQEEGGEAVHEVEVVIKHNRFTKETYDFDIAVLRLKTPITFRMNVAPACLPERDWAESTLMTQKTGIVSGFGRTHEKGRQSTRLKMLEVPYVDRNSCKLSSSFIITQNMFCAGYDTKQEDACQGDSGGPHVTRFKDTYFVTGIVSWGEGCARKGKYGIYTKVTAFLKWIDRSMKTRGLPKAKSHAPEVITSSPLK
Sequence of Human FXa (P00742 41-179 partner limits assumed): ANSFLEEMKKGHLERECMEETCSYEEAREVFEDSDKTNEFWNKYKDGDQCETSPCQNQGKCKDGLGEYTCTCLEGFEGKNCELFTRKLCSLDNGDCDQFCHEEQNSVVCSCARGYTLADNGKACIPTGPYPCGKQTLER

Compound | IC50 [1] | Ki [1] | inhibition at 99 µM [2] | inhibition at 99 µM [3] | inhibition at 99 µM [4] | inhibition at 99 µM [5] | inhibition at 99 µM [7] | inhibition at 99 µM [8] | IC50 [6] | Ki [6] | further results
[H]/N=C(/N)c1ccc2cc(C(=O)Nc3ccccc3)cc(Nc3ncccn3)c2c1 [Compound 1] | < 0.14 µM | – | – | – | – | – | – | – | – | – | –
CCCS(=O)(=O)N[C@@H](C(=O)N[C@@H](CC(C)C)C(=O)NCc1ccc(C(=N)N)cc1)C1CCCCC1 [Compound 2, reference compound] | 0.11 µM | 0.06 µM | – | – | – | – | – | – | – | – | –
O=c1ccc2cc(Cl)ccc2[nH]1 [Compound 5] | 140 µM | – | 1% | 31% | 8% | 0% | 0% | 31% | – | – | ligand efficiency (LE) ([1]; FXIa): 0.44; -ΔG fragment (printed with reversed sign in the ΔG link equation) ([1]; FXIa, subtracted term, so ΔG itself is negative): 5.66 kcal/mol; Ki ([1]; read-out: FXIa Ki): 70 µM; inhibition at 99 µM ([6]; read-out: PKK % inhibition at 99 μM): 5%
N=C(N)c1ccccc1 [Compound 7, benzamidine, reference compound] | 610 µM | – | – | – | – | – | – | – | – | – | –
COC(=O)Nc1ccc(-c2nc(CNC(=O)CCc3cc(Cl)ccc3-n3cnnn3)[nH]c2Cl)cc1 [Compound 11, reference compound] | 0.16 µM | 0.08 µM | 0% | 6% | – | 4% | 0% | 0% | 20 µM | 4.2 µM | IC50 [4]: 63 µM; Ki ([4]; converted from IC50): 31 µM
CC(=O)N[C@@H](Cc1ccccc1)C(=O)NCc1cc(=O)[nH]c2ccc(Cl)cc12 [Compound 14, (S)-2-Acetamido-N-{(6-chloro-2-oxo-1,2-dihydroquinolin-4-yl)methyl}-3-phenylpropanamide] | 33 µM | 16 µM | 4% | 0% | 9% | 18% | 3% | 7% | 59 µM | 12 µM | ligand efficiency (LE) ([1]; FXIa): 0.22
CN(C)C(=O)[C@H](Cc1ccccc1)NC(=O)c1ccc2[nH]c(=O)cc(O)c2c1 [Compound 16, (S)-N-(1-(Dimethylamino)-1-oxo-3-phenylpropan-2-yl)-4-hydroxy-2-oxo-1,2-dihydroquinoline-6-carboxamide] | > 1000 µM | – | – | – | – | – | – | – | – | – | inhibition at 1000 µM ([1]; read-out: FXIa % inh. at 1 mM): 36%
O=C1CC(CNC(=O)[C@H](Cc2ccccc2)NC(=O)c2ccc3[nH]c(=O)cc(O)c3c2)c2cc(Cl)ccc2N1 (some centres unmarked) [Compound 18, N-({2S}-1-({6-Chloro-2-oxo-1,2,3,4-tetrahydroquinolin-4-yl}methylamino)-1-oxo-3-phenylpropan-2-yl)-4-hydroxy-2-oxo-1,2-dihydroquinoline-6-carboxamide] | 0.01 µM | 0.005 µM | – | – | – | – | – | – | – | – | –
Cc1cc(N)nc2ccccc12 [Compound 19] | 240 µM | 120 µM | 7% | 9% | 8% | 43% | 7% | 8% | – | – | –
O=C1CC(CC(=O)NC(Cc2ccccc2)C(=O)Nc2ccc(-c3nnn[nH]3)cc2)c2cc(Cl)ccc2N1 (centres unmarked) [Compound 20, N-(4-(1H-Tetrazol-5-yl)phenyl)-2-(2-(6-chloro-2-oxo-1,2,3,4-tetrahydroquinolin-4-yl)acetamido)-3-phenylpropanamide] | 0.33 µM | 0.16 µM | 4% | 12% | 10% | 7% | 15% | 8% | 2.3 µM | 0.48 µM | –
O=C(CC1Cc2cc(Cl)ccc2NC1=O)NC(Cc1ccccc1)C(=O)Nc1ccc(-c2nnn[nH]2)cc1 (centres unmarked) [Compound 21, N-(4-(1H-Tetrazol-5-yl)phenyl)-2-(2-(6-chloro-2-oxo-1,2,3,4-tetrahydroquinolin-3-yl)acetamido)-3-phenylpropanamide] | 1.9 µM | 0.95 µM | 0% | 0% | 2% | 1% | 3% | 0% | 25 µM | 5.2 µM | –
O=C(Cc1cc2cc(Cl)ccc2[nH]c1=O)NC(Cc1ccccc1)C(=O)Nc1ccc(-c2nnn[nH]2)cc1 (centres unmarked) [Compound 22, N-(4-(1H-Tetrazol-5-yl)phenyl)-2-(2-(6-chloro-2-oxo-1,2-dihydroquinolin-3-yl)acetamido)-3-phenylpropanamide] | 10 µM | 5 µM | 7% | 24% | 27% | 14% | 18% | – | 10 µM | 2.1 µM | IC50 [8]: 70 µM; Ki ([8]; converted from IC50): 33 µM
O=C(CCc1cc2cc(Cl)ccc2[nH]c1=O)N[C@@H](Cc1ccccc1)C(=O)Nc1ccc(-c2nnn[nH]2)cc1 [Compound 23, (S)-N-(4-(1H-Tetrazol-5-yl)phenyl)-2-(3-(6-chloro-2-oxo-1,2-dihydroquinolin-3-yl)propanamido)-3-phenylpropanamide] | 67 µM | 34 µM | – | – | – | – | – | – | – | – | –
O=C(CCc1cc(=O)[nH]c2ccc(Cl)cc12)N[C@@H](Cc1ccccc1)C(=O)Nc1ccc(-c2nnn[nH]2)cc1 [Compound 24, (S)-N-(4-(1H-Tetrazol-5-yl)phenyl)-2-(3-(6-chloro-2-oxo-1,2-dihydroquinolin-4-yl)propanamido)-3-phenylpropanamide] | 9 µM | 4.5 µM | – | – | – | – | – | – | – | – | –
CN(Cc1cc(=O)[nH]c2ccc(Cl)cc12)C(=O)[C@H](Cc1ccccc1)NC(=O)c1ccc2[nH]c(=O)cc(O)c2c1 [Compound 25, (S)-N-(1-[{(6-Chloro-2-oxo-1,2-dihydroquinolin-4-yl)methyl}(methyl)amino]-1-oxo-3-phenylpropan-2-yl)-4-hydroxy-2-oxo-1,2-dihydroquinoline-6-carboxamide] | < 0.005 µM | – | – | – | – | – | – | – | – | – | inhibition at 0.005 µM ([1]; read-out: FXIa % inh. at 5 nM): 85%; chromatographic logD [9]: 1.3; Caco2 A to B permeability ([10]; measured at pH 6.5): 0.28 1·10^-6 cm/s; efflux ratio [11]: 5.2; Rat CLint [12]: 10 μL/min/ 1·10^6 cells
Cc1c(-c2ccccc2)n[nH]c1C(=O)N(C)Cc1cc(=O)[nH]c2ccccc12 [Compound 27] | 99 µM | 50 µM | – | – | – | – | – | – | – | – | Caco2 A to B permeability ([10]; measured at pH 7.4 at side A): 12 1·10^-6 cm/s; efflux ratio [11]: 6.7; Rat CLint [12]: 58 μL/min/ 1·10^6 cells
